# From patent US20080085889A1, “Amidomethyl-Substituted 1-(Carboxyalkyl) Cyclopentyl-Carbonylamino-Benzazepine-N-Acetic Acid Compounds, Process and Intermediate Products for Their Preparation and Pharmaceutical Compositions Containing Them” (SOLVAY PHARMACEUTICALS GmbH, priority 2003, published 2008)
# How the values were obtained:
# [1] = test system: formation of ET-1 from Big-ET-1; assay: In vivo inhibition of the Big-ET-1-induced blood pressure increase in anaesthetised rats, i.v. single dose; set-up: species or system Rats (Sprague-Dawley); conditions: Rattus norvegicus, iv, 5 min before 0.5 nmol/kg Big-ET-1, negative values indicate inhibition, read-out: % substance-related inhibition of the maximum Big-ET effect on SAP vs. control; for change in vivo at 10 µmol/kg: 10 μmol/kg; for change in vivo at 3 µmol/kg: 3 μmol/kg
# From the text: 3. In Vivo Investigation of the Inhibitory Action of the Substances on the Formation of ET-1 from Big-ET-1 in Rats
# ET-1 is an endogenous substance with strong vasoconstrictive effect. An increase in the ET-1 level results in an increase in blood pressure. Upon infusion of Big-ET-1, an increase in blood pressure takes place to the extent that ET-1 is produced therefrom by enzyme-catalysed cleavage of Big-ET-1. As a measurement of the enzyme-inhibiting action of the substances, their inhibitory action on the increase in blood pressure induced by infusion of Big-ET-1 was determined.
# Rats (Sprague-Dawley, CRLD=Charles River) were anaesthetised with 1 ml/kg Rompun/Ketavet 1:1. A pressure transducer (Statham) was inserted into the carotid artery to measure blood pressure. One jugular vein was cannulated for administering the substance, and the other for administering Big-ET-1. After a 20-minute equilibration phase, the rats were administered the corresponding test substance of Formula I at a dose of as a rule 10 μmol/kg (if not stated otherwise), or a vehicle. Five minutes later, 0.5 nmol/kg Big-ET-1 was infused over a period of one minute. The systolic (SAP=systolic arterial pressure) and the diastolic (DAP=diastolic arterial pressure) blood pressure and the heart rate were each measured before administration of the substance, then immediately before administration of Big-ET and in each case every five minutes over a period of 30 minutes after Big-ET administration using the pressure transducer in known manner. The maximum Big-ET-induced increase in blood pressure and the maximum lowering of heart rate were calculated from the measured values as the difference between the value measured at the moment of maximum development of the Big-ET action (typically after 5 min.) and the value measured before Big-ET infusion. Furthermore, the integral of the blood pressure curve under the influence of Big-ET-1 was determined over 30 minutes (AUC=area under the curve).
# The percentage inhibition of the maximum Big-ET-1 effect on the systolic arterial blood pressure (SAP) after i.v. administration of the test substances compared with administration of a vehicle is set forth in the following Table 3a:
# Data given in table 3a as negative values indicate an inhibitory effect.
# [2] = target: T1, soluble, human recombinant NEP (Homo sapiens, UniProt P08473); assay: In-vitro investigation of the NEP inhibitory action (fluorescence-quenched Big-ET-1 analogue, HPLC); format: biochemical
# T1 construct: soluble, human recombinant NEP; purchased Prof; Crine, University of Montreal, Canada
# Protocol: 1. In-Vitro Investigation of the NEP Inhibitory Action of the Substances
# In this test, the measure of the inhibitory activity of the substances which was determined was their IC50 value. The IC50 value of a test substance having enzyme-inhibitory activity is that concentration of the test substance at which 50% of the enzymatic activity of the NEP is blocked.
# 70 μl test buffer, 10 μl enzyme working solution and 10 μl test substance solution were mixed in an Eppendorf vessel and preincubated at 37° C. for 15 minutes (=min.). Then 10 μl substrate stock solution was added and the test batch was incubated for 60 minutes at 37° C. The enzymatic reaction was then ended by 5-minutes' heating to 95° C. After centrifugation (Heraeus Biofuge B, 3 min.), the liquid supernatant was investigated by HPLC in accordance with the following specifications.
# The substrate was separated from cleavage products by means of reversed-phase HPLC (CC 125/4 Nucleosil 300/5 C18 RP column with CC 8/4 Nucleosil 100/5 C18 precolumn, from Macherey-Nagel, Düren, Germany). For this, 60 μl of the test mixture was injected into the HPLC sample injection point and the column was then eluted at a flow rate of 1 ml/min with the following gradient:
# Mobile Phase B: 100% acetonitrile+0.5M H3PO4
# All the peptides were detected by absorption at 214 nm and by fluorescence with an excitation wavelength of 328 nm and an emission wavelength of 393 nm.
# Upon enzymatic cleavage of the peptide, the fluorophore (=Mca) and the quencher end up in different peptide fragments, which reduces the effectiveness of the quench. […] The increasing fluorescence signal (corresponds to the area, A) of the HPLC peak of the peptide with the non-quenched Mca fluorophore is used for the further calculations. This signal was compared for samples with (=Ainhib) and without (=Acontrol) test substance of Formula I, and the value “% inhibition” was calculated on the basis of the respective peak areas according to the following formula: % inhibition=100*(1−Ainhib/Acontrol)
# All the samples were measured in duplicates and average values were calculated therefrom. A standard inhibitor (10 nM thiorphan) and a solvent control (0.1% DMSO) were likewise measured as quality controls on each run. In this test model the test substances of Formula I listed in the following Table 1 had the IC50 values given below: […]
# [3] = target: T2, His6-tagged hSEP ectodomain (Homo sapiens, UniProt Q495T6); assay: In vitro investigation of the hSEP-inhibitory action (fluorescence-quenched Big-ET-1 analogue, HPLC); format: biochemical
# T2 construct: His6-tagged hSEP ectodomain; His6; purchased Innogenetics, Ghent, Belgium
# T2 sequence (Q495T6 49-779 limits assumed): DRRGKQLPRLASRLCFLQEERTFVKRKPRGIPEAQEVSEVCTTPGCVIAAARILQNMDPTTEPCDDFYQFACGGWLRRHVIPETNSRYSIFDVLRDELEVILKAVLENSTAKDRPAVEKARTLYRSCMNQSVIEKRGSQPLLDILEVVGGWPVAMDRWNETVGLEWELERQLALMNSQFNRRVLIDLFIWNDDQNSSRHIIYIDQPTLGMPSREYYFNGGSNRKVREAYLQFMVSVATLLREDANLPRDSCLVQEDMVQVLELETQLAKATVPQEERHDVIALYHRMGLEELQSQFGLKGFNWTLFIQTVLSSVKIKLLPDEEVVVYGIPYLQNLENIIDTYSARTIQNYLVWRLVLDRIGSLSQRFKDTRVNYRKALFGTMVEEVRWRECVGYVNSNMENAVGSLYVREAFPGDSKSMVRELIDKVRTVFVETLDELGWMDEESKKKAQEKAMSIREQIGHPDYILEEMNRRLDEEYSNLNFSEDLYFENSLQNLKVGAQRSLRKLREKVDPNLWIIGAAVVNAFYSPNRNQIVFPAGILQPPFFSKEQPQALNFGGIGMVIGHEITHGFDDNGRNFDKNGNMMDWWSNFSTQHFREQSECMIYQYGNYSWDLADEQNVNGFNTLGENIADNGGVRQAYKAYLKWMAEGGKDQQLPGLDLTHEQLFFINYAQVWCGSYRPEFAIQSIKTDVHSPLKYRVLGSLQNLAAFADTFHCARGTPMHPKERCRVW
# Protocol: 2. In Vitro Investigation of the hSEP-Inhibitory Action of the Substances
# In this test, the measure of the inhibitory activity of the substances which was determined was their IC50 value. The IC50 value of a test substance having enzyme-inhibitory activity is that concentration of the test substance at which 50% of the enzymatic activity of the hSEP is blocked.
# The test and the HPLC procedure were carried out analogously to the manner set forth above for determining the in vitro inhibitory action of the test substances on NEP. 10 nM phosphoramidon served as standard inhibitor in the HPLC procedure. In this test model the test substances of Formula I listed in the following Table 2 had the IC50 values given below: […]
# T1 sequence (P08473 52-750 limits assumed): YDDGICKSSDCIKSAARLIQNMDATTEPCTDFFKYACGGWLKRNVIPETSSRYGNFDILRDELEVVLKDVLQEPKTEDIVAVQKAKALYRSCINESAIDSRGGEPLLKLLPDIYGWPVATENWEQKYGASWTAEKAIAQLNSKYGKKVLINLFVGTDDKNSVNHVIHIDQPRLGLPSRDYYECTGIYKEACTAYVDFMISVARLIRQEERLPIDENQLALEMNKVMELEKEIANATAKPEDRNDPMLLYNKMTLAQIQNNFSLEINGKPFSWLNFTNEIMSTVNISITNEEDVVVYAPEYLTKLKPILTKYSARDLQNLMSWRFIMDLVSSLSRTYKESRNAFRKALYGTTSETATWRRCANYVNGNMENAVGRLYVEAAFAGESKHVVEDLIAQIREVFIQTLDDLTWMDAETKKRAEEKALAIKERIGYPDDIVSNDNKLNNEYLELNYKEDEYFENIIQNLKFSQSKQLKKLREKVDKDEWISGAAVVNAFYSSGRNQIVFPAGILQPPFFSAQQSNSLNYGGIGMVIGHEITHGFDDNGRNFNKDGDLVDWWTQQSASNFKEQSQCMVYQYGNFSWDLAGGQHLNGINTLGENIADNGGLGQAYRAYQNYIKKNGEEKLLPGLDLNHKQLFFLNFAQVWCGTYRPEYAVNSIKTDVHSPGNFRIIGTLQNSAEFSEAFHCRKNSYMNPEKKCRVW
SMILES,change in vivo at 10 µmol/kg [1],IC50 [2],IC50 [3],change in vivo at 3 µmol/kg [1]
CC(=O)CC(C)(C)NC(=O)CC(CC1(C(=O)N[C@H]2CCc3ccccc3N(CC(=O)O)C2=O)CCCC1)C(=O)O (mixture of isomers) [Example 21],-43%,16.9 nM,,
O=C(O)CN1C(=O)[C@@H](NC(=O)C2(CC(CC(=O)NCc3ccccc3)C(=O)O)CCCC2)CCc2ccccc21 (mixture of isomers) [Example 27],,7.8 nM,26.8 nM,
CNC(=O)CC(CC1(C(=O)N[C@H]2CCc3ccccc3N(CC(=O)O)C2=O)CCCC1)C(=O)O (mixture of isomers) [Example 28],,,11.9 nM,
"CC(C)N(C)C(=O)CC(CC1(C(=O)NC2CCc3ccccc3N(CC(=O)O)C2=O)CCCC1)C(=O)O (racemic) [Example 32, 2-{[1-({[1-(carboxymethyl)-2-oxo-2,3,4,5-tetrahydro-1H-1-benzazepin-3-yl]amino}carbonyl)cyclopentyl]methyl}-4-[isopropyl(methyl)amino]-4-oxobutanoic acid]",-60%,13.8 nM,,
"CN(CCO)C(=O)CC(CC1(C(=O)NC2CCc3ccccc3N(CC(=O)O)C2=O)CCCC1)C(=O)O (racemic) [Example 43, 2-{[1-({[1-(carboxymethyl)-2-oxo-2,3,4,5-tetrahydro-1H-1-benzazepin-3-yl]amino}carbonyl)cyclopentyl]methyl}-4-[(2-hydroxyethyl)(methyl)amino]-4-oxobutanoic acid]",,3.2 nM,2.9 nM,
"CN(C)C(=O)CC(CC1(C(=O)NC2CCc3ccccc3N(CC(=O)O)C2=O)CCCC1)C(=O)O (racemic) [Example 54, 2-{[1-({[1-(carboxymethyl)-2-oxo-2,3,4,5-tetrahydro-1H-1-benzazepin-3-yl]amino}carbonyl)cyclopentyl]methyl}-4-(dimethylamino)-4-oxobutanoic acid]",-87%,,,
"CN(CCCO)C(=O)CC(CC1(C(=O)NC2CCc3ccccc3N(CC(=O)O)C2=O)CCCC1)C(=O)O (racemic) [Example 56, 2-{[1-({[1-(carboxymethyl)-2-oxo-2,3,4,5-tetrahydro-1H-1-benzazepin-3-yl]amino}carbonyl)cyclopentyl]methyl}-4-[(3-hydroxypropyl)(methyl)amino]-4-oxobutanoic acid]",,,2.5 nM,
"CN(C)CCCN(C)C(=O)CC(CC1(C(=O)NC2CCc3ccccc3N(CC(=O)O)C2=O)CCCC1)C(=O)O (racemic) [Example 60, 2-[(1-{[1-(carboxymethyl)-2-oxo-2,3,4,5-tetrahydro-1H-1-benzazepin-3-yl]carbamoyl}cyclopentyl)methyl]-4-{[3-(dimethylamino)propyl](methyl)amino}-4-oxobutanoic acid]",-70%,,,
"CNCCCN(C)C(=O)CC(CC1(C(=O)NC2CCc3ccccc3N(CC(=O)O)C2=O)CCCC1)C(=O)O (racemic) [Example 77, 2-{[1-({[1-(carboxymethyl)-2-oxo-2,3,4,5-tetrahydro-1H-1-benzazepin-3-yl]amino}carbonyl)cyclopentyl]methyl}-4-{methyl[3-(methylamino)propyl]amino}-4-oxobutanoic acid]",,,,-56%
"O=C(O)CN1C(=O)[C@@H](NC(=O)C2(CC(CC(=O)N3CCOCC3)C(=O)O)CCCC2)CCc2ccccc21 (single isomer, unassigned) [Example 19]",,18.2 nM,9.5 nM,
"COc1ccccc1CNC(=O)CC(CC1(C(=O)N[C@H]2CCc3ccccc3N(CC(=O)O)C2=O)CCCC1)C(=O)O (single isomer, unassigned) [Example 31]",,4 nM,12.3 nM,
"O=C(O)CN1C(=O)[C@@H](NC(=O)C2(CC(CC(=O)NCCCO)C(=O)O)CCCC2)CCc2ccccc21 (stereo in doubt) [Example 10, (2″rel1″)-2-{[1-({[(3S)-1-(carboxymethyl)-2-oxo-2,3,4,5-tetrahydro-1H-1-benzazepin-3-yl]amino}carbonyl)cyclopentyl]methyl}-4-[(3-hydroxypropyl)amino]-4-oxobutyric acid]",,37 nM,25.3 nM,
"CC(C)NC(=O)CC(CC1(C(=O)N[C@H]2CCc3ccccc3N(CC(=O)O)C2=O)CCCC1)C(=O)O (stereo partly drawn) [Example 2, 2-{[(3S)-1-({[1-(carboxymethyl)-2-oxo-2,3,4,5-tetrahydro-1H-1-benzazepin-3-yl]amino}-carbonyl)cyclopentyl]methyl}-4-(isopropylamino)-4-oxobutyric acid]",-53%,,21.4 nM,
"CC(C)NC(=O)CC(CC1(C(=O)N[C@H]2CCc3ccccc3N(CC(=O)O)C2=O)CCCC1)C(=O)OCc1ccc(Cl)cc1 (stereo partly drawn) [Example 14, {(3S)-3-[({1-[2-{[(4-chlorobenzyl)oxy]carbonyl}-4-(isopropylamino)-4-oxobutyl]-cyclopentyl}carbonyl)amino]-2-oxo-2,3,4,5-tetrahydro-1H-1-benzazepin-1-yl}acetic acid]",,,,-59%
"CC(C)[C@H](N)C(=O)OC1CCN(C(=O)CC(CC2(C(=O)N[C@H]3CCc4ccccc4N(CC(=O)O)C3=O)CCCC2)C(=O)O)CC1 (stereo partly drawn) [Example 70, 2-{[1-({[1-(carboxymethyl)-2-oxo-2,3,4,5-tetrahydro-1H-1-benzazepin-3-yl]amino}carbonyl)cyclopentyl]methyl}-4-oxo-4-[4-(L-valyloxy)piperidin-1-yl]butanoic acid]",-77%,,,
